Values of other authors in patent US20260232685A1, “TRANSDERMAL PERMEATION ENHANCING COMPOSITION AND APPLICATION THEREOF IN TIMOLOL PREPARATION” (WUHAN CONFORM PHARMACEUTICAL CO., LTD., priority 2019, published 2026).

Details: absorbed by the gastrointestinal tract; J. Pharm. Pharmacol., 1978, 30, 53

SMILES: CC(C)(C)NC[C@H](O)COc1nsnc1N1CCOCC1 [timolol]
- Hepatic first-pass effect and metabolism at other sites, share of the total dose: about 34%
